Measurements reported in patent publication US20060073995A1, “Animal shampoo” (priority 2004, published 2006).

Assay: Stability study of the shampoo solution at room temperature (active ingredient remaining)
Type: physicochemical
Description: Solution was stirred and stability studies were performed at room temperature

N-chloro-4-carboxybenzenesulfonamide disodium salt
N-chloro-4-carboxybenzenesulfonamide disodium salt active ingredient remained (in Example 1 shampoo (1% active, pH just below 9), after 49 days): 84.8%
N-chloro-4-carboxybenzenesulfonamide disodium salt active ingredient remained (in Example 2 shampoo (1% active, pH 9), after 62 days): 100%
N-chloro-4-carboxybenzenesulfonamide disodium salt active ingredient remained (in Example 3 shampoo (1% active, pH 9), after 62 days): 88.1%
